The values that follow come from patent publication US20150359866A1, “TREATMENT OF CERVICAL AND RELATED […] TOPICAL IMMUNOMODULATORS” (THE JOHNS HOPKINS UNIVERSITY, priority 2014, published 2015).

In the test the test system is CIN2/3 lesions associated with HPV genotypes other than HPV16. In words: Clinical trial of topical imiquimod on CIN 2/3 lesions (lesion regression). The class given is in vivo, human. From the text:
Treatment protocol. In an embodiment, patients are screened at their initial colposcopic evaluation for referral for evaluation of high grade pap smears. Immunocomptetent patients with biopsy-confirmed CIN2/3 which is HPV16 negative will be eligible for enrollment. Both treatment and control groups will be assessed for histologic diagnosis at week 15, change in cervical quantitative HPV viral load, safety, toxicity, tolerability, and for measures of local mucosal immune responses. Patients will be given imiquimod (5%) or vehicle at Day 0, week 4, and week 8 and then histological diagnosis is determined at week 15.
Imiquimod administration on the lesion at each vaccination. In an embodiment, patients received a total of three applications of imiquimod directly on the cervical lesion, one application at the time of each vaccination. One single use packet containing 250 mg of 5% imiquimod was used for each treatment. After insertion of a vaginal speculum, the cream is applied directly to the lesion by the PI, using a cotton-tipped applicator. The speculum is withdrawn, and a tampon is placed as a medication barrier. Patients will be instructed to leave the tampon in place for about 4 to 6, and no more than 10 hours. […]
Clinical trial results. […] Subjects were monitored for mucosal irritation. […]

For `CC(C)Cn1cnc2c(N)nc3ccccc3c21` [imiquimod, 1-(2-methylpropyl)-1H-imidazo[4,5-c]quinolin-4-amine], the “rate of regression relative to untreated HPV16-negative CIN2/3 patients” value (FIG. 4, untreated rate in same timeframe 30-40%) is recorded as “nearly double”. Further, the “rate of regression of CIN2/3 lesions” value (HPV16-negative subjects, 12.5 mg imiquimod in 250 mg cream applied to the cervical lesion three times at four-week intervals, assessed eight weeks after third application, 10/16 subjects) is reported as 62.5%.
